Drawing on BindingDB's records for doi:10.1021/acs.jmedchem.1c00511 (2021), this text covers IC50 for one molecule.

The target of this experiment is Vitamin K-dependent protein C (Homo sapiens) (UniProt P04070). Put plainly: Inhibition of human APC using pyroGlu-Pro-Arg-p-nitroaniline-HCl as substrate measured after 5 mins by plate reader analysis.
Chain of Vitamin K-dependent protein C (Homo sapiens) (P04070 whole entry, looked up): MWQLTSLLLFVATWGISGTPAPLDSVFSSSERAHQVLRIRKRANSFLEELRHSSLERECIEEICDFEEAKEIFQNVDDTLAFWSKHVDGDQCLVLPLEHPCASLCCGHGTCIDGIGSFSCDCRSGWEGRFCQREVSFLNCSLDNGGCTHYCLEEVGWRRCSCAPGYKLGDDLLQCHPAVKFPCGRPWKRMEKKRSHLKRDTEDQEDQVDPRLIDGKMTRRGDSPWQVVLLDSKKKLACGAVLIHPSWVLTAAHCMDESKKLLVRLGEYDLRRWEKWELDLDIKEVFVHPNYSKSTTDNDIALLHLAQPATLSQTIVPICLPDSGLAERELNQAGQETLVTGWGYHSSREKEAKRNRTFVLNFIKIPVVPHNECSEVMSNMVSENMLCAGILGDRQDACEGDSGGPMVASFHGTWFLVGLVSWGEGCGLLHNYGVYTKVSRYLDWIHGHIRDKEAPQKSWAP

The term IC50 denotes the midpoint of a concentration-inhibition curve. A higher IC50 goes with a need for much substance. As for `N#Cc1cccc(C(NCC2CC2)c2ccc(F)c(NC(=O)c3cc(C(F)(F)F)nn3-c3cccc(CN)c3)c2)c1` (single isomer, unassigned; (+)) [(+)-1-(3-(aminomethyl)phenyl)-N-(5-((3-cyanophenyl)(cyclopropyl-methylamino)methyl)-2-fluorophenyl)-3-(trifluoromethyl)-1H-pyrazole-5-carboxamide], the IC50 was over 30 µM.
